The source of these data is US6969590B2, “Use of a polypeptide for treatment of pruritus in animals” (Zengen, Inc., priority 2001, dated 2005).

One assay concerns C. albicans. In words: Horse serum-induced germ tube formation of C. albicans. As to conditions: 10^−6M, 60 minutes at 37° C. Type of assay: cell-based. The protocol:
C. albicans from stationary phase cultures were washed twice with distilled water and suspended in HBSS to a final concentration of 2×10^6/ml. Hyphal growth was induced by addition of 10% inactivated horse serum (GIBCO/BRL, Great Britain) to yeast incubated for 45 minutes at 37° C. with continuous shaking. Horse serum was removed by washing cells twice with HBSS and incubation was continued for 60 minutes at 37° C. in the presence of α-MSH (1-13), α-MSH (6-13) or α-MSH (11-13) at a concentration of 10^−6M with continuous shaking. The percentage of filamentous cells was evaluated under a light microscope with the aid of hemocytometer. Experiments were run in triplicate and at least 200 cells were scored. Photomicrographs were taken with an MC100 camera attached to an Axioskop Zeiss microscope.

The next assay has as its system cAMP. The experiment in a line: cAMP accumulation in N9 cells. As to conditions: resting cells and cells incubated with LPS+IFN-γ. The format is cell-based, murine. The protocol: cAMP accumulation in N9 cells was measured as previously described. Briefly, cells in six-well plates were co-incubated at 37° C. with (1) medium; (2) forskolin (100 μM); (3) LPS (10 ng/mL)+IFN-γ (1 U/mL); (4) α-MSH (1-13) or α-MSH (11-13) (1, 10, 50 μM); (5) LPS+IFN-γ and either α-MSN (1-13) or α-MSH (11-13) (10 μM). Reactions were stopped after 3 min by aspirating supernatants, immediately adding 1 mL ethanol at −20° C. and freezing. cAMP content in the ethanol-soluble fraction was measured using an enzyme immunoassay kit (Amersham).
On the technique in general: Changes in cAMP serve as a functional read-out for many G protein-coupled receptors.

Assay [1] concerns edema caused by intradermal injection of human recombinant IL-1β in the mouse ear. In words: Ear edema by intradermal recombinant human IL-1β. Type of assay: in vivo, BALB/c mice. As to conditions: centrally administered peptide, propranolol injected centrally. On the procedure: Female BALB/c mice (Simonsen Laboratories, Gilroy, Calif.), 7-8 weeks old, were housed at 23-25° C. in groups not exceeding five animals per cage [28 cm (L)×18 cm (W)×13 cm (H)]. Before the experiments they were acclimatized for not less than 1 week before experimentation to standard lighting and temperature conditions with food and water freely available.
Mice were anesthetized with 10% pentobarbital sodium solution (1 mg/mouse, 50 mg/ml, Nembutal sodium solution; Abbott Laboratories, North Chicago, Ill.). Baseline ear thickness measurements were taken with a spring-loaded micrometer (Swiss Precision Instruments, Los Angeles, Calif.). Ear thickness was expressed in cubic centimeters and was measured at least twice at each time point. The average thickness of unstimulated ears was […]. Inflammation was induced by intradermal injection of 20 μl of recombinant human IL-1β (1500 U; Genzyme, Cambridge, Mass.) in one ear of each mouse using a 28 gauge needle (Hiltz et al., 1992). Measures of ear thickness were repeated 4 and 6 hr later, while the mice were under sodium pentobarbital anesthesia. Edema was assessed by subtracting baseline measures from 4 and 6 hr readings for each animal. α-MSH (11-13) (1663.9 gm/mol; Peninsula Laboratories, Belmont, Calif.) or α-MSH (11-13) (383.48 gm/mol; Peninsula Laboratories) dissolved in saline was injected intracerebroventricularly (20 μl) using procedures described previously (Lipton et al., 1991; Lipton and Catania, 1993).
Several agents were administered at the time of ear challenge to pharmacologically block certain receptors: atropine (Sigma Chemical Co.; 150 μg i.p.), a muscarinic receptor blocker that acts on autonomic end-organ receptors, was chosen because of links between inflammation and modulation of pain and the finding that muscarinic antagonists increase pain threshold (Hartvig et al., 1989); phentolamine (Sigma; 150 μg i.p.) an agent that competes for occupancy of α-adrenergic receptors; propranolol (Sigma; 150 μg, i.p.; 30 μg, i.c.v.), a nonspecific competitive antagonist for β-adrenergic receptors.
Because of the size of the experiments and the requirement for several shipments of animals over time, several experiments were performed, each with complete treatment and control groups drawn from the same shipment of mice. Omnibus analysis of variance techniques (Dynastat, Washington, D.C.) were used to test overall differences among group means. Tukey's protected t test was used to compare individual means. Probability values of <0.05 were considered significant.

The subject of a further assay is IL-6. In words: IL-6 production by activated N9 microglia. As to conditions: microglia stimulated with LPS+IFN-γ for 24 hr, micromolar concentrations. The format is cell-based, murine. The protocol:
The N9 clone of murine microglial cells was obtained by immortalization of embryonic brain cultures with the 3RV retrovirus carrying an activated v-myconcogene. N9 cells were cultured in T-75-cm^2 culture flasks (Corning, Cambridge, Mass.) and maintained at 37° C. in a humidified incubator under 5% CO2 atmosphere in RPMI 1640 supplemented with 2 mM L-glutamine, 50 U/mL penicillin G, 50 μg/mL streptomycin sulfate (GIBCO-BBL, Paisley, UK), and 10% heat-inactivated fetal bovine serum (FBS, Hyclone Lab, Inc., Logan, Utah) until experiments were performed. Cells were used between the first and the tenth passage.
Sub-confluent microglial cells were washed twice with phosphate-buffered saline (PBS) and incubated with trypsin 0.025% and ethylenediaminetetraacetate (EDTA) 0.02% without calcium and magnesium for 3 min. at 37° C. to detach the cells from the culture flask. Cells were then resuspended in medium and incubated in 24-well tissue-culture plates at a concentration of 2×10^5 cells/mL for 16 h in a humidified incubator (37° C., 5% CO2). Growth medium was removed and cell monolayers were stimulated with 10 ng/mL lipopolysaccharide (LPS, from Escherichia coli 055:B5, Sigma Chemical Co., St. Louis, Mo.) plus 1 U/ml, murine IFN-γ (Sigma). To test effects of melanocortin peptides, concentrations (1, 10, 25, 50 and 100 μM) of α-MSH (1-13), α-MSH (11-13), and ACTH (1-24) (Sigma) were dissolved in medium and added to wells 10 min before treatment with LPS+IFN-γ. […] Viability of cells was assessed by trypan blue exclusion for each experimental condition; it was consistently >98%. […]
TNF-α bioactivity was measured in supernatants of cell cultures by standard cytotoxicity assay using L929 cells and recombinant human TNF-α (Sigma) as standard. […] IL-6 was measured using a commercial murine enzyme-linked immunosorbent assay (ELISA: RPN 2714, Amersham, Little Chalfont, UK).
Effects of melanocortin peptides on cytokine and NO production were evaluated by repeated measures analysis of variance followed by Dunnet's test for specific comparisons. […]

Turning to SYSMEHFRWGKPV [α-MSH (1-13)], in the assay with C. albicans, the “reduction in the number of filamentous cells (inhibition of germination)” value is recorded as 28-32%. Also, in the assay with cAMP, the cAMP accumulation entry was “increased cAMP accumlation”. For the same sequence, the “inhibition of ear edema” value stood at 36% in assay [1] (4 hr) and 32% in assay [1] (6 hr). Also, the “reduction of production of IL-6” value with IL-6 was found to be 31%.
